# Measurements reported in publication PMC7562955 (Nature Communications, 2020).
# Target: T1, mouse TLR7 (Mus musculus, UniProt P58681)
# T1 construct: host or cells: HEK293 (293XL-mTLR7)
# T1 sequence (P58681 27-1050): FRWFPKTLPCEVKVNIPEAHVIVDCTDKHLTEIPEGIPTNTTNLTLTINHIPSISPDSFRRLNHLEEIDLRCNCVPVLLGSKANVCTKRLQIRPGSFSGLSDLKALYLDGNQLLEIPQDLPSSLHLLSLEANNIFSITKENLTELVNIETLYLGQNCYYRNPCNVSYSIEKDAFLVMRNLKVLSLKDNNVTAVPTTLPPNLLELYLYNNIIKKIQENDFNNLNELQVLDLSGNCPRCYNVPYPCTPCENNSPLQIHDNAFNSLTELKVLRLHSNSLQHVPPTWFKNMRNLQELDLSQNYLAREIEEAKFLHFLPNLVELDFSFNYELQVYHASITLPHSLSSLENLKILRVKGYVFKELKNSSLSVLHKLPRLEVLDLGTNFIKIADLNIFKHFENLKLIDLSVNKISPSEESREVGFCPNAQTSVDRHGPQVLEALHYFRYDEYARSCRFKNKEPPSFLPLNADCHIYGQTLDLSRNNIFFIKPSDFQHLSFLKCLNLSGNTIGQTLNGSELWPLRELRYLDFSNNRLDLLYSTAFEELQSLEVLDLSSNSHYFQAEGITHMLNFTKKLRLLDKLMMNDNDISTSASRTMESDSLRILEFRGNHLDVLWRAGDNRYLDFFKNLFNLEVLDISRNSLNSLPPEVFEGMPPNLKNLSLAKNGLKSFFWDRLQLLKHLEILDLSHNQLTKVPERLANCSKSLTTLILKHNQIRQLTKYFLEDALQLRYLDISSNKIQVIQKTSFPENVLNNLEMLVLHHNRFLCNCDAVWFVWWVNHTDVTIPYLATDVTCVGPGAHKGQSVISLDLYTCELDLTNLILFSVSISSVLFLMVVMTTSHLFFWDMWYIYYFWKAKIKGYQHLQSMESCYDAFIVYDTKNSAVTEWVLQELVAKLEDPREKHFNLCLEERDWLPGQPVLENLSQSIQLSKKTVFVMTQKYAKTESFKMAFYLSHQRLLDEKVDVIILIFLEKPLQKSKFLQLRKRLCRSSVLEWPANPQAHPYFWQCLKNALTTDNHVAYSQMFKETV
# Experiment: Mouse TLR7 reporter gene assay (NF-kB luciferase, HEK293)
# Type: cell-based
# Description: Compounds were dissolved in dimethyl sulfoxide. The day before transfection, mouse TLR7 genestably-expressing HE293 cell line (293XL-mTLR7 cell, InvivoGen, USA) and mouse TLR9 genestably-expressing HEK293 cell line (293-mTLR9 cell, InvivoGen) were seeded in collagen-coated 6-well plate (AGC techno glass) at 3 × 10^5 cells/well in DMEM (GIBCO) with 10% fetal bovine serum (GIBCO), and 10 μg ml^−1 Blastcidin S HCl (GIBCO) and incubated at 37 °C in 5% CO2. The plates were incubated over-night and then cotransfected with 1 μg (mouse TLR7) or 0.3 μg (mouse TLR9) of pNF-kB-Luciferase reporter in a 10:1 ratio with 4 μl of FuGene6 transfection reagent (Promega corporation, USA) following the manufacturer’s instructions. The plates were incubated 24 h. The cells re-seeded into 96-well plate (AGC techno glass) at 2 × 10^4 cells/well in DMEM (GIBCO) with 10% fetal bovine serum (GIBCO), and 10 μg ml^−1 Blastcidin S HCl (GIBCO) and then inhibition with various concentrations of compound. HCQ (mouse TLR7/9, Acros Organics, United Kingdom) was used as positive control. After 30 min, R848 (mouse TLR7/8 ligand) or CpG1826 (mouse TLR9 ligand, Hokkaido System Science Co., Ltd.) added to each well, wherein each final concentration were adjusted to 200 nM R848 (mouse TLR7) or 100 nM CpG1826 (mouse TLR9). The plates were then incubated an additional 6 h at 37 °C in 5% CO2, and then the luciferase activity was measured as activation of mouse TLR7 and 9. The luciferase activity was evaluated as follows: Bright-GloTM Luciferase Assay System (Promega) was added to the incubated sample (100 μl/well); after 2 min, the luminescence intensity of each sample was measured with a luminometer (Envision).
# [1] = compound 0.0001 nM (as headed), R848 200 nM
# [2] = compound 0.001 nM (as headed), R848 200 nM
# [3] = compound 0.003 nM (as headed), R848 200 nM
# [4] = compound 0.01 nM (as headed), R848 200 nM
# [5] = compound 0.03 nM (as headed), R848 200 nM
# [6] = compound 0.1 nM (as headed), R848 200 nM
# [7] = compound 0.3 nM (as headed), R848 200 nM
# [8] = compound 1 nM (as headed), R848 200 nM
# [9] = compound 3 nM (as headed), R848 200 nM
# [10] = compound 10 nM (as headed), R848 200 nM
# [11] = compound 30 nM (as headed), R848 200 nM
# [12] = compound 100 nM (as headed), R848 200 nM
SMILES,selectivity mouse TLR7 vs TLR9,IC50 (R848 200 nM) [nM],"mouse TLR7 activity, reporter signal [1]","mouse TLR7 activity, reporter signal [2]","mouse TLR7 activity, reporter signal [3]","mouse TLR7 activity, reporter signal [4]","mouse TLR7 activity, reporter signal [5]","mouse TLR7 activity, reporter signal [6]","mouse TLR7 activity, reporter signal [7]","mouse TLR7 activity, reporter signal [8]","mouse TLR7 activity, reporter signal [9]","mouse TLR7 activity, reporter signal [10]","mouse TLR7 activity, reporter signal [11]","mouse TLR7 activity, reporter signal [12]"
CCOc1nc(C)c2nc(-c3cncc(F)c3)n(Cc3ccc(CN4C[C@@H]5C[C@H]4CN5C)cc3)c2n1 [Cpd-7],TLR7-selective,192,7166,5248,4474,4918,5112,4262,2860,1240,1308,550,0,0
"CCN(CCO)CCCC(C)Nc1ccnc2cc(Cl)ccc12 (centres unmarked) [HCQ, hydroxychloroquine, reference compound]",–,–,7166,7642,8310,7288,6268,6670,9264,7190,9456,3934,558,1958
